{"source": "patent US20210196607A1", "about": "(HESED BIO CO., LTD., priority 2017, published 2021)", "key": {"[1]": {"test_system": "estrogen receptor signaling pathway", "experiment": "mRNA of estrogen receptor target genes", "assay_type": "cell-based", "conditions": "HEK 293A cells (FIG. 5D)", "description": "(§1) Total RNA was extracted from each group of cells using a TRI reagent (Molecular Research Center). Extracted RNA was reverse transcribed using an ImProm™ Reverse Transcription System (Promega), followed by measurement using a StepOnePlus™ Real-Time PCR System (Applied Biosystems)."}, "[2]": {"test_system": "B16F10 mouse melanoma cells", "experiment": "Measuring amount of melanin", "assay_type": "cell-based", "description": "B16F10 mouse melanoma cells were seeded into a 6-well cell culture plate at a density of 1×10^5/well. […] The obtained cells were disrupted and then centrifuged to obtain a cell precipitate, and 1 N NaOH containing 10% DMSO was added thereto. Thereafter, the resulting precipitate was allowed to react at 60° C. for 1 hour, and absorbance at 405 nm was measured."}, "[3]": {"target": "T1, ERα ligand-binding domain (Homo sapiens, UniProt P03372)", "T1 construct": "expressed in transfected cells; host or cells: HEK 293A cells", "T1 sequence (P03372 311-547 limits assumed)": "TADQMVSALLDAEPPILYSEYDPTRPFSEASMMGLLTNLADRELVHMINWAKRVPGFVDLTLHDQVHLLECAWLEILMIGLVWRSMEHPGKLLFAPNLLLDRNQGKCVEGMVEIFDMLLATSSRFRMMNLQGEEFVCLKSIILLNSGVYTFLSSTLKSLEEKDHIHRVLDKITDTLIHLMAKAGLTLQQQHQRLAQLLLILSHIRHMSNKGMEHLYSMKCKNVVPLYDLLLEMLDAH", "T1 sequence (P04386 1-147 partner limits assumed)": "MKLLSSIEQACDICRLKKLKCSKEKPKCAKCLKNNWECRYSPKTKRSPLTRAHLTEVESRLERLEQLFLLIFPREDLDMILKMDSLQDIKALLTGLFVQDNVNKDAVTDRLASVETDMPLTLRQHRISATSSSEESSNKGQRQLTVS", "experiment": "Estrogen receptor reporter (GAL4 luciferase) experiment", "assay_type": "cell-based", "description": "To deliver a DNA plasmid into HEK 293A cells, a microporator (Invitrogen/Neon® Transfection System) was used. At one time, 1 μg of a reporter plasmid was delivered into 1 million cells. The DNA-delivered cells were cultured in a general culture medium. The activities of Renilla and Firefly luciferases were measured using a Dual-Luciferase® Reporter Assay System (Promega). To measure the activity of an estrogen receptor (ER) reporter, a system, in which, when a specific material binds to the ER ligand domain, GAL4 binds to a specific DNA sequence, resulting in expression of the Firefly luciferase, was used, and the Renilla luciferase was delivered together to calibrate DNA transfer efficiency. The activity of the estrogen receptor reporter was determined by dividing a value of the Firefly luciferase by a value of the Renilla luciferase. […] When HEK 293A cells to which reporter DNAs were delivered were treated with 50 μM of the extract, the expression of the luciferases was nearly 3.5 times higher than that of the control (see FIG. 5B)."}, "tyrosinase [4]": {"target": "T2, tyrosinase (Mus musculus, UniProt P11344)", "T2 construct": "The obtained cells were disrupted and then centrifuged to separate a supernatant; endogenous in cells; host or cells: B16F10 mouse melanoma cells, stimulated with melanocyte stimulating hormone", "T2 sequence (P11344 19-533)": "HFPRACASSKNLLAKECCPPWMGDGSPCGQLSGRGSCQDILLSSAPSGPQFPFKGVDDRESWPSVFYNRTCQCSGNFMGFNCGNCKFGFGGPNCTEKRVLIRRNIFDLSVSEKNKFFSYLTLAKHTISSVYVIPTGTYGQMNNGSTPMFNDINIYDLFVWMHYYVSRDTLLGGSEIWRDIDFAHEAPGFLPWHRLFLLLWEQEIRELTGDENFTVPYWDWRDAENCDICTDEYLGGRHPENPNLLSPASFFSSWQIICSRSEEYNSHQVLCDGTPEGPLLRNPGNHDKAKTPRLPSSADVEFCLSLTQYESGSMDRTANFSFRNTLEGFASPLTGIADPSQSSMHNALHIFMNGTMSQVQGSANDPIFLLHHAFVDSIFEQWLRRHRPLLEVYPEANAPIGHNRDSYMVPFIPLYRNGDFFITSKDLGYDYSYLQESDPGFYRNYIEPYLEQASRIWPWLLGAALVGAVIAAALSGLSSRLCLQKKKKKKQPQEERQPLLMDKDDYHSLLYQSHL", "experiment": "Degree of tyrosinase activity at cellular level", "assay_type": "cell-based", "conditions": "B16F10 cells", "description": "B16F10 mouse melanoma cells were seeded into a 6-well cell culture plate at a density of 1×10^5/well. […] The obtained cells were disrupted and then centrifuged to separate a supernatant. The protein concentration of the supernatant was measured, and 50 μg of protein per sample was standardized into a volume of 50 μl and placed on a 96-well plate. Then, 100 μl of 0.1% L-DOPA was added as a reaction substrate to each sample and allowed to react at 37° C. for 1 hour, and then absorbance at 475 nm was measured."}, "tyrosinase [5]": {"test_system": "tyrosinase", "experiment": "Tyrosinase protein and mRNA amount in MSH-treated B16F10 cells", "assay_type": "cell-based, mouse", "description": "Antibodies were purchased from respective manufacturers. Tyrosinase, 14-3-3ζ, LAMIN B (Santa Cruz), MITF (Abcam), phospho-MITF (Sigma), ERK, phospho-ERK (Cell Signaling), ACTIN (MPBIO), and GAPDH (Bethyl) were used.\nas §1"}, "cells": {"test_system": "cells", "experiment": "Cytotoxicity experiment (MTT experiment)", "assay_type": "cell-based", "description": "1-1: Cell Culture HEK 293A and B16F10 cells used, Dulbecco's Modified Eagle's Medium (DMEM) containing 10% fetal bovine serum and 1% penicillin/streptomycin as a nutrient source, and were incubated in an incubator maintained at 37° C. under 5% CO2.\nThis is an experiment for measuring the number of living cells through conversion of 3-(4,5-dimethyl-thiazol-2-yl)-2,5-diphenyl tetrazolium bromide (MTT) into formazan with a purple color, by reduction in cells. Cells were seeded into a 96-well cell culture plate at a density of 3×10^3. […] Thereafter, the culture medium was removed, and a solvent for dissolving crystallized formazan was added to dissolve the sample, and the absorbance at 570 nm of the dissolved sample was measured."}, "[6]": {"test_system": "heat shock protein 70 (HSP70)", "experiment": "Expression of heat shock protein 70 under heat stress", "assay_type": "cell-based, mouse", "conditions": "B16F10 cells", "description": "Total protein was extracted from the cells using a THE buffer, and then the amount thereof was measured using a Bradford reagent. In addition, proteins were separated by SDS-PAGE and identified using antibodies, followed by quantitative analysis. Antibodies were purchased from respective manufacturers, and HSP70 (Santa Cruz) and actin (MPBIO) were used.\nas §1"}, "[7]": {"conditions": "100 nM melanocyte stimulating hormone for 48 hours"}, "[8]": {"conditions": "increasing amount of 8-methoxybutin (FIG. 2D)"}}, "data": [{"smiles": "COc1c(O)ccc2c1OC(c1ccc(O)c(O)c1)CC2=O", "note": "(centres unmarked) [8-methoxybutin, 2-(3,4-dihydroxyphenyl)-7-hydroxy-8-methoxy-2,3-dihydro-4H-1-benzopyran-4-one]", "values": [{"measurement": "amount of mRNA of target genes", "setting": "[1]", "result": "increased"}, {"measurement": "decrease in melanin synthesis amount", "setting": "[2]; [7]", "result": "≥ 50", "unit": "%"}, {"measurement": "melanin synthesis with increasing amount of compound", "setting": "[2]; [8]", "result": "in proportion to the amount of 8-methoxybutin"}, {"measurement": "expression of the luciferases relative to the control", "setting": "[3]; HEK 293A cells with reporter DNAs, 50 μM (FIG. 5B)", "result": "~3.5", "unit": "times"}, {"measurement": "expression of luciferases depending on concentration", "setting": "[3]; HEK 293A cells, concentration increased from 10 μM (FIG. 5C)", "result": "statistically significant increase"}, {"measurement": "decrease in tyrosinase activity", "setting": "tyrosinase [4]; [7]", "result": "≥ 110", "unit": "%"}, {"measurement": "tyrosinase activity with increasing amount of compound", "setting": "tyrosinase [4]; [8]", "result": "in proportion to the amount of 8-methoxybutin"}, {"measurement": "amount of tyrosinase protein", "setting": "tyrosinase [5]; B16F10 cells treated with melanocyte stimulating hormone (FIG. 2B)", "result": "remarkable decrease"}, {"measurement": "tyrosinase mRNA level", "setting": "tyrosinase [5]; B16F10 cells treated with melanocyte stimulating hormone (FIG. 2C)", "result": "confirmed at an mRNA level"}, {"measurement": "amount of tyrosinase protein with increasing amount of compound", "setting": "tyrosinase [5]; B16F10 cells, increasing amount of 8-methoxybutin (FIG. 2E)", "result": "reduced in proportion to the amount of 8-methoxybutin"}, {"measurement": "cell survival rate", "setting": "cells; 24 hours treatment, high as well as low concentration", "result": "about 100%"}, {"measurement": "cytotoxicity", "setting": "cells; high concentration, 100 μM", "result": "cytotoxicity was hardly observed"}, {"measurement": "amount of heat shock protein 70 mRNA compared to the control", "setting": "[6]; heat stress (FIG. 3B)", "result": "larger amount"}, {"measurement": "amount of heat shock protein 70 (HSP70) compared to a control", "setting": "[6]; heat-applied condition 42° C. for 1 hour, DMSO control (FIG. 3A)", "result": "increased at least three times"}]}]}
